Entries after “also recorded” stand apart in the source; their conditions may differ. Like-named read-outs stand apart in the source and are kept apart here.
Key:
THP-1 = experiment: Host cell toxicity: THP-1 host nuclei counts in the image-based assay; details: for Selectivity: ratio between parasite GI50 and THP-1 GI50; for GI50: read-out: GI50 THP-1
Protocol: (§1) Sterile, black, 96-well, clear bottom plates (Greiner Bio-One) were seeded with exponentially growing THP-1 (5×10^5cells/ml). THP-1 were treated with 0.1 µM phorbol myristate acetate (PMA, Sigma) at 37°C for 48 h to achieve differentiation into adherent, non-dividing macrophages. Maturation of THP-1 cells towards monocyte-macrophage like cells is essential to avoid parasitized cells being overgrown by replicating cells. After activation by PMA, cells were washed and incubated with complete RPMI medium containing stationary phase L. donovani promastigotes at a macrophage/promastigote ratio of 1/15. After 4 h incubation at 37°C, non-internalized promastigotes were removed by 2–3 successive washes with RPMI containing 5% FBS and 5% horse serum. Test compounds (10 µM), positive control (2 µM amphotericin B) or negative control (1% DMSO) were then added to the cultures using a Biomek FXp liquid handler (Beckman Coulter). Cultures were incubated at 37°C for 72 h. Cells were then washed with phosphate-buffered saline (PBS), fixed for 30 minutes with 4% formaldehyde, rinsed again with PBS, stained for 2 h with 4′,6′-diamidino-2-phenylindole (DAPI 300 nM) and finally washed with PBS. […] Images were acquired with an INCell Analyzer 1000 automated epi-fluorescent microscope (G.E. Healthcare). The excitation and emission filters used to detect DAPI were 350/50 nm and 460/40 nm respectively. Eight image fields were acquired per well with a 20X objective. The proprietary INCell Developer Toolbox 1.7 software was used for image analysis. Segmentation parameters were set to identify host nuclei with a minimum area of 250 µm^2 and parasite kinetoplast with an average area of 1 µm^2. The intensity of parasite nucleus was too low to be detected with a 20X objective. A border, representing the boundary of the cell, was drawn around the nucleus (total area between 700 and 2000 µm^2). Only parasites found within this area were included in the calculation to eliminate extracellular parasites. False positive parasite detection in the nucleus was also excluded from the calculation. Host cell nuclei and parasite kinetoplasts were counted and the ratio of parasites DNA to host nuclei was selected as the measurement output. Percentage inhibition of parasite growth was calculated as [1-(P/hcx-P/hc^+)/(P/hc^−-P/hc^+)]*100 where P/hcx, P/hc^+ and P/hc^− are parasite per host cell ratio for every well, positive control (amphotericin B) and negative control (DMSO) respectively. Calculation of Z' factor and GI50 curve fitting were carried out as described above.

[1] = tested on: L. donovani intracellular amastigotes; experiment: Intracellular amastigote high-throughput image-based assay in infected THP-1 macrophages; type: cell-based, Leishmania donovani; details: for GI50: read-out: GI50 Intracellular amastigote
Protocol: as §1

[2] = tested on: L. donovani promastigotes; experiment: Promastigote high-throughput ATP-bioluminescence assay; type: cell-based, Leishmania donovani; details: for GI50: read-out: GI50 Promastigote
Protocol: L. donovani promastigotes from an exponentially growing culture were diluted to 10^6/ml in RPMI containing 10% FBS and 10% BHT. The diluted culture (99 µl/well) was dispensed in sterile 96-well flat white opaque assay plates (Greiner Bio-One) using a WellMate multichannel dispenser (Matrix). 1 µl of 1 mM test compound dissolved in DMSO was added to the plates for a final concentration of 10 µM compound and 1% DMSO. Amphotericin B was added as a positive control (final concentration 2 µM, 1% DMSO) and as a negative control, 1 µl DMSO was added (1% final concentration). Compounds and controls were added to the assay plate with the robotic dispenser Biomek FXp liquid handler (Beckman Coulter). Promastigotes were incubated with the compounds for 72 h at 27°C. The parasites were then lysed by adding 50 µl of CellTiter-Glo (Promega) and placed on an orbital shaker for 5 min at room temperature. After lysis, the resulting ATP-bioluminescence was measured using the Analyst HT plate reader (Molecular Devices). Percentage inhibition of parasite growth was calculated for each well as [1-(RLUx-RLU^+)/(RLU^--RLU^+)]*100 where RLUx, RLU^+ and RLU^- are respectively the Relative Light Units for each well, positive (amphotericin B) and negative (DMSO) controls. A screening window coefficient, denoted Z' factor, was used to evaluate the performance of the assay. The Z' factor, calculated as 1-(3σc++3σc−)/(µc+−µc−) where σc+, σc−, µc+ and µc− are respectively the standard deviation and mean values of positive and negative controls, is reflective of the assay signal dynamic range and the data variation associated with signal measurement. […] GI50 curve fitting was carried out using GraphPad Prism 4 Software (GraphPad Software Inc., San Diego, CA).

[3] = tested on: L. donovani axenic amastigotes; experiment: Dose response study against axenic amastigotes (CellTiter-Glo); type: cell-based, Leishmania donovani; details: for GI50: read-out: GI50 Axenic amastigote
Protocol: L. donovani axenic amastigotes (5×10^5 cells/ml in axenic amastigote media) were dispensed in sterile 96-well flat white opaque assay plates (Greiner Bio-One) using a WellMate multichannel dispenser (Matrix). […] 1% DMSO and amphotericin B (2 µM, 1% DMSO final concentration) were added as negative and positive controls respectively. Axenic amastigotes were incubated with the compounds for 72 h at 37°C with 5% CO2. Parasite viability was then measured using CellTiter-Glo as described above.

[4] = PMA-differentiated infected THP-1, 72 h, host nuclei count
[5] = Leishmania donovani, THP-1, 72 h, L. donovani in THP-1, 72 h, parasites per host cell
[6] = ratio between promastigote GI50 and intracellular amastigote GI50, >2 more active against intracellular amastigote, <0.4 more active against promastigotes
[7] = Leishmania donovani, 72 h at 27°C, CellTiter-Glo
[8] = Leishmania donovani, 72 h at 37°C, CellTiter-Glo
[9] = Leishmania donovani, THP-1, 72 h
[10] = L. donovani in THP-1, 72 h, parasites per host cell

Structure (SMILES)	Selectivity (THP-1)	GI50 (THP-1; Homo sapiens, THP-1, 72 h)	GI50 [1, 5]	Specificity [1, 6]	GI50 [2, 7]	GI50 [3, 8]	other results
CC(C)(C)c1ccc(S(=O)(=O)/C=C/C#N)cc1 [BAY 11–7085]	32.46						GI50 (THP-1; [4]): > 50 µM; Specificity [1]: 0.06; GI50 ([2]; 72 h at 27°C, CellTiter-Glo): 1.54 µM; GI50 ([3]; 72 h at 37°C, CellTiter-Glo): 0.42 µM
CCN(CC)c1ccc(C(=C2C=CC(=[N+](CC)CC)C=C2)c2ccccc2)cc1 [Brilliant green]	15.88	1.64 µM	6 µM	0.02	0.1 µM	0.03 µM	
COc1ccccc1OCCNCC(O)COc1cccc2[nH]c3ccccc3c12 (centres unmarked) [Carvedilol]	6.07	37.5 µM	6.16 µM	2.01	12.4 µM	> 16.5 µM	
COCc1c(C(C)C)nc(C(C)C)c(/C=C/[C@@H](O)C[C@@H](O)CC(=O)O)c1-c1ccc(F)cc1 [Cerivastatin]	0.66	7.15 µM	> 50 µM	0.22	10.8 µM	0.02 µM	
[H]/N=C(\N/C(=N/[H])NCCCCCCNC(=N)NC(=N)Nc1ccc(Cl)cc1)Nc1ccc(Cl)cc1 [Chlorhexidine]	9.27	> 16.5 µM	1.79 µM	1.56	2.81 µM	4.78 µM	
Cc1cc(C2CCCCC2)n(O)c(=O)c1 [Ciclopirox]	1.90	42 µM	22 µM	0.69	15.2 µM	> 50 µM	
Clc1ccccc1C(c1ccccc1)(c1ccccc1)n1ccnc1 [Clotrimazole]	15.32	> 16.5 µM	1.08 µM	11.92	12.9 µM	4.56 µM	
C[C@@H]1C[C@@H]([C@H](O)CC2CC(=O)NC(=O)C2)C(=O)[C@@H](C)C1 [Cycloheximide]	18.13	21 µM		2.55			GI50 [1, 9]: 1.15 µM; GI50 ([2]; Leishmania donovani, 72 h): 2.95 µM; GI50 ([3]; Leishmania donovani, 72 h): 0.39 µM
COc1cc2nc(N3CCN(C(=O)C4COc5ccccc5O4)CC3)nc(N)c2cc1OC (centres unmarked) [Doxazocin]	3.32			1.69			GI50 (THP-1; [4]): > 16.5 µM; GI50 [1, 10]: 5 µM; GI50 ([2]; 72 h at 27°C, CellTiter-Glo): 8.45 µM; GI50 ([3]; 72 h at 37°C, CellTiter-Glo): > 16.5 µM
CC[C@H]1CN2CCc3cc(OC)c(OC)cc3[C@@H]2C[C@@H]1C[C@H]1NCCc2cc(OC)c(OC)cc21 [Emetine]		1.28 µM	0.082 µM		0.03 µM	1.62 µM	
Clc1cc(Cl)c(OCC#CI)cc1Cl [Haloprogin]	19.04	20 µM	6 µM	0.17	1.05 µM	0.56 µM	
COC(=O)C[C@](O)(CCC(C)(C)O)C(=O)O[C@@H]1C(OC)=C[C@]23CCCN2CCc2cc4c(cc2[C@H]13)OCO4 [Harringtonin]	0.02						GI50 (THP-1; [4]): 0.1 µM; Specificity [1]: 3.39; GI50 [1, 10]: 4.89 µM; GI50 ([2]; 72 h at 27°C, CellTiter-Glo): 16.6 µM; GI50 ([3]; 72 h at 37°C, CellTiter-Glo): 10.6 µM
Oc1c(Cl)cc(Cl)c(Cl)c1Cc1c(O)c(Cl)cc(Cl)c1Cl [Hexachlorophene]		16.5 µM		3.49			GI50 [1, 9]: 4.54 µM; GI50 ([2]; Leishmania donovani, 72 h): 15.9 µM; GI50 ([3]; Leishmania donovani, 72 h): 14.8 µM
CCN(CCCCOC(=O)c1ccc(OC)c(OC)c1)C(C)Cc1ccc(OC)cc1 (centres unmarked) [Mebeverine]	5.88	> 50 µM	8.5 µM	0.81	6.91 µM	2.36 µM	
CN1C[C@H](CNC(=O)OCc2ccccc2)C[C@@H]2c3cccc4c3c(cn4C)C[C@H]21 [Metergoline]	47.22	37.1 µM	0.78 µM	19.17	15.1 µM	> 50 µM	
Clc1ccc(COC(Cn2ccnc2)c2ccc(Cl)cc2Cl)c(Cl)c1 (centres unmarked) [Miconazole]	1.07	> 16.5 µM	15.4 µM	0.48	7.48 µM	4.73 µM	
C=CCN1CC[C@]23c4c5ccc(O)c4O[C@H]2/C(=N/N=C2\CC[C@@]4(O)[C@H]6Cc7ccc(O)c8c7[C@@]4(CCN6CC=C)[C@H]2O8)CC[C@@]3(O)[C@H]1C5 [Naloxonazine]	9.68	33.8 µM	3.45 µM		> 50 µM	> 50 µM	GI90 THP-1 (THP-1): 50 µM; Primary screen against intracellular amastigotes, hit selection [1]: complete specificity for the intracellular amastigote stage; Specificity [1]: 14.32; GI50 [1, 10]: 3.49 µM; GI90 intracellular amastigote ([1]; curative concentration): 12.5 µM; Activity against promastigotes (in words) ([2]; dose response, up to 50 µM): no activity; also recorded: completely inactive; Activity against axenic amastigotes (in words) ([3]; dose response, up to 50 µM): no activity

From article PMC3139667, “A Screen against Leishmania Intracellular Amastigotes: Comparison to a Promastigote Screen and Identification of a Host Cell-Specific Hit” (PLoS Neglected Tropical Diseases, 2011)
